Laboratory results as given in ChEMBL document CHEMBL4765407, “Design, synthesis and high antitumor potential of new unsymmetrical bisacridine derivatives towards human solid tumors, specifically pancreatic cancers and their unique ability to stabilize DNA G-quadruplexes” (Eur J Med Chem, 2020).

Tests used:
Quadruplex DNA [1] = experiment: Stabilization of 5'-FAM/3'-TAMRA labeled c-Myc promoter G4 quadruplex DNA FPu18 (unknown origin) assessed as change in melting temperature at 10 microM measured after 15 mins by FRET assay; assay type: nucleic-acid assay
DU-145 [2] = experiment: Cytotoxicity against human DU-145 cells assessed as reduction in cell viability measured after 72 hrs by SRB assay; assay type: functional, cell-based; details: DU-145, 72 h
HCT-116 [3] = experiment: Antitumour activity against human HCT-116 cells xenografted in Crl:Nu-Foxnl nu mouse assessed as inhibition of tumour growth at total effective dose of 100 mg/kg, ip measured on day 23; assay type: functional; details: HCT-116, ip, 552 h, time 23 day, read-out: TGI
HCT-116 [4] = experiment: Cytotoxicity against human HCT-116 cells assessed as reduction in cell viability measured after 72 hrs by SRB assay; assay type: functional, cell-based; details: HCT-116, 72 h
Quadruplex DNA [5] = experiment: Stabilization of 5'-FAM/3'-TAMRA labeled telomeric G4 quadruplex DNA F21T (unknown origin) assessed as change in melting temperature at 10 microM measured after 15 mins by FRET assay; assay type: nucleic-acid assay
UMUC3 [6] = experiment: Cytotoxicity against human UMUC3 cells assessed as reduction in cell viability measured after 72 hrs by SRB assay; assay type: functional, cell-based; details: UMUC3, 72 h
[7] = Stabilization of ds 5'-FAM-d(TATAGCTATA-HEG-TATAGCTATA)-TAMRA-3' (unknown origin) assessed as change in melting temperature at 10 microM measured after 15 mins by FRET assay; details: Homo sapiens
W256 [8] = experiment: Antitumour activity against Walker 256 adenocarcinoma cells implanted in Wistar rat assessed as increase in animal survival rate by measuring T/C ratio at 5 mg/kg, ip qd for 3 days administered on day 3,4,5 after tumor cell transplantation; assay type: functional; details: time 3 day
HT-29 = experiment: Cytotoxicity against human HT-29 cells assessed as reduction in cell viability measured after 72 hrs by SRB assay; assay type: functional, cell-based; details: HT-29, 72 h
NCI-H460 [9] = experiment: Cytotoxicity against human NCI-H460 cells assessed as reduction in cell viability measured after 72 hrs by SRB assay; assay type: functional, cell-based; details: NCI-H460, 72 h
Quadruplex DNA [10] = experiment: Stabilization of 5'-FAM/3'-TAMRA labeled K-Ras G4 quadruplex DNA (unknown origin) assessed as change in melting temperature at 10 microM measured after 15 mins by FRET assay; assay type: nucleic-acid assay
PANC-1 [11] = experiment: Cytotoxicity against human PANC-1 cells assessed as reduction in cell viability measured after 72 hrs by SRB assay; assay type: functional, cell-based; details: PANC-1, 72 h
MDA-MB-231 [12] = experiment: Antitumour activity against human MDA-MB-231 cells xenografted in Crl:Nu-Foxnl nu mouse assessed as inhibition of tumour growth at total effective dose of 8 mg/kg, iv measured on day 50; assay type: functional; details: MDA-MB-231, iv, 1200 h, time 50 day, read-out: TGI
MCF7 = experiment: Cytotoxicity against human MCF7 cells assessed as reduction in cell viability measured after 72 hrs by SRB assay; assay type: functional, cell-based; details: MCF7, 72 h
MDA-MB-231 [13] = experiment: Cytotoxicity against human MDA-MB-231 cells assessed as reduction in cell viability measured after 72 hrs by SRB assay; assay type: functional, cell-based; details: MDA-MB-231, 72 h
NCI-H460 [14] = experiment: Antitumour activity against human NCI-H460 cells xenografted in Crl:Nu-Foxnl nu mouse assessed as inhibition of tumour growth at total effective dose of 10 mg/kg, iv measured on day 21; assay type: functional; details: 504 h, time 21 day, read-out: TGI
DU-145 [15] = experiment: Antitumour activity against human DU-145 cells xenografted in Crl:Nu-Foxnl nu mouse assessed as inhibition of tumour growth at total effective dose of 8 mg/kg, iv measured on day 33; assay type: functional; details: DU-145, iv, 792 h, time 33 day, read-out: TGI
ASPC1 = experiment: Cytotoxicity against human ASPC1 cells assessed as reduction in cell viability measured after 72 hrs by SRB assay; assay type: functional, cell-based; details: ASPC1, 72 h
W256 [16] = experiment: Antitumour activity against Walker 256 adenocarcinoma cells implanted in Wistar rat assessed as increase in animal survival rate by measuring T/C ratio at 2 mg/kg, ip qd for 3 days administered on day 3,4,5 after tumor cell transplantation; assay type: functional; details: time 3 day
BXPC-3 = experiment: Cytotoxicity against human BXPC-3 cells assessed as reduction in cell viability measured after 72 hrs by SRB assay; assay type: functional, cell-based; details: BXPC-3, 72 h
DU-145 [17] = experiment: Antitumour activity against human DU-145 cells xenografted in Crl:Nu-Foxnl nu mouse assessed as inhibition of tumour growth at total effective dose of 32 mg/kg, iv measured on day 63; assay type: functional; details: DU-145, iv, 1512 h, time 63 day, read-out: TGI
PC-3 [18] = experiment: Cytotoxicity against human PC-3 cells assessed as reduction in cell viability measured after 72 hrs by SRB assay; assay type: functional, cell-based; details: PC-3, 72 h
MIA PaCa-2 = experiment: Cytotoxicity against human MIA PaCa-2 cells assessed as reduction in cell viability measured after 72 hrs by SRB assay; assay type: functional, cell-based; details: MIA PaCa-2, 72 h
PANC-1 [19] = experiment: Antitumour activity against human PANC-1 cells xenografted in Crl:Nu-Foxnl nu mouse assessed as inhibition of tumour growth at total effective dose of 120 mg/kg, iv measured on day 51; assay type: functional; details: PANC-1, iv, 1224 h, time 51 day, read-out: TGI
LNCaP = experiment: Cytotoxicity against human LNCaP cells assessed as reduction in cell viability measured after 72 hrs by SRB assay; assay type: functional, cell-based
NCI-H460 [20] = experiment: Antitumour activity against human NCI-H460 cells xenografted in Crl:Nu-Foxnl nu mouse assessed as inhibition of tumour growth at total effective dose of 60 mg/kg, ip measured on day 14; assay type: functional; details: 336 h, time 14 day, read-out: TGI
NCI-H460 [21] = experiment: Antitumour activity against human NCI-H460 cells xenografted in Crl:Nu-Foxnl nu mouse assessed as inhibition of tumour growth at total effective dose of 30 mg/kg, ip measured on day 14; assay type: functional; details: 336 h, time 14 day, read-out: TGI
W256 [22] = experiment: Antitumour activity against Walker 256 adenocarcinoma cells implanted in Wistar rat assessed as increase in animal survival rate by measuring T/C ratio at 6.25 mg/kg, ip qd for 3 days administered on day 3,4,5 after tumor cell transplantation; assay type: functional; details: time 3 day
DU-145 [23] = experiment: Antitumour activity against human DU-145 cells xenografted in Crl:Nu-Foxnl nu mouse assessed as inhibition of tumour growth at total effective dose of 48 mg/kg, ip measured on day 35; assay type: functional; details: DU-145, ip, 840 h, time 35 day, read-out: TGI
W256 [24] = experiment: Antitumour activity against Walker 256 adenocarcinoma cells implanted in Wistar rat assessed as increase in animal survival rate by measuring T/C ratio at 4 mg/kg, ip qd for 3 days administered on day 3,4,5 after tumor cell transplantation; assay type: functional; details: time 3 day
DU-145 [25] = experiment: Antitumour activity against human DU-145 cells xenografted in Crl:Nu-Foxnl nu mouse assessed as inhibition of tumour growth at total effective dose of 40 mg/kg, ip measured on day 35; assay type: functional; details: DU-145, ip, 840 h, time 35 day, read-out: TGI
UMUC3 [26] = experiment: Antitumour activity against human UMUC3 cells xenografted in Crl:Nu-Foxnl nu mouse assessed as inhibition of tumour growth at total effective dose of 14 mg/kg, iv measured on day 23; assay type: functional; details: 552 h, time 23 day, read-out: TGI
PANC-1 [27] = experiment: Antitumour activity against human PANC-1 cells xenografted in Crl:Nu-Foxnl nu mouse assessed as inhibition of tumour growth at total effective dose of 16 mg/kg, iv measured on day 37; assay type: functional; details: PANC-1, iv, 888 h, time 37 day, read-out: TGI
PC-3 [28] = experiment: Antitumour activity against human PC-3 cells xenografted in Crl:Nu-Foxnl nu mouse assessed as inhibition of tumour growth at total effective dose of 8 mg/kg, iv measured on day 39; assay type: functional; details: PC-3, iv, 936 h, time 39 day, read-out: TGI
PANC-1 [29] = experiment: Antitumour activity against human PANC-1 cells xenografted in Crl:Nu-Foxnl nu mouse assessed as inhibition of tumour growth at total effective dose of 10 mg/kg, iv measured on day 37; assay type: functional; details: PANC-1, iv, 888 h, time 37 day, read-out: TGI
PANC-1 [30] = experiment: Antitumour activity against human PANC-1 cells xenografted in Crl:Nu-Foxnl nu mouse assessed as inhibition of tumour growth at total effective dose of 30 mg/kg, iv measured on day 45; assay type: functional; details: PANC-1, iv, 1080 h, time 45 day, read-out: TGI
W256 [31] = experiment: Antitumour activity against Walker 256 adenocarcinoma cells implanted in Wistar rat assessed as increase in animal survival rate by measuring T/C ratio at 20 mg/kg, ip qd for 3 days administered on day 3,4,5 after tumor cell transplantation; assay type: functional; details: time 3 day
NCI-H460 [32] = experiment: Antitumour activity against human NCI-H460 cells xenografted in Crl:Nu-Foxnl nu mouse assessed as inhibition of tumour growth at total effective dose of 60 mg/kg, iv measured on day 17; assay type: functional; details: 408 h, time 17 day, read-out: TGI

Compound	ΔTm (Quadruplex DNA [1]) [°C]	IC50 (DU-145 [2]) [nM]	IC50 (HCT-116 [4]) [nM]	ΔTm (Quadruplex DNA [5]) [°C]	IC50 (UMUC3 [6]) [nM]	ΔTm [7] [°C]	T/C (W256 [8]) [%]	IC50 (HT-29) [nM]	IC50 (NCI-H460 [9]) [nM]	ΔTm (Quadruplex DNA [10]) [°C]	IC50 (PANC-1 [11]) [nM]	IC50 (MDA-MB-231 [13]) [nM]	IC50 (PC-3 [18]) [nM]	IC50 (MIA PaCa-2) [nM]	IC50 (LNCaP) [nM]	further results
Cc1ccc([N+](=O)[O-])c2c(NCCCN(C)CCCNc3ccc([N+](=O)[O-])c4[nH]c5ccccc5c(=O)c34)c3ccccc3nc12	18.8	44	74	6.8	54	2.4	1000	230	55	28.5	110					inhibition in vivo at 100 mg/kg (HCT-116 [3]): 52%
Cc1ccc(NCCCN2CCN(CCCNc3c4ccccc4nc4cccc([N+](=O)[O-])c34)CC2)c2c(=O)c3cc(O)ccc3[nH]c12	17.9	20	19	7.3	9.5	1.7		23	5	27.6	27	28	48	16	84	inhibition in vivo at 8 mg/kg (MDA-MB-231 [12]): 30%; IC50 (MCF7): 113 nM; inhibition in vivo at 10 mg/kg (NCI-H460 [14]): 42%; inhibition in vivo at 8 mg/kg (DU-145 [15]): 51%; IC50 (ASPC1): 79 nM; T/C (W256 [16]): 250%; IC50 (BXPC-3): 59 nM; inhibition in vivo at 32 mg/kg (DU-145 [17]): 90%; inhibition in vivo at 120 mg/kg (PANC-1 [19]): 75%
Cc1ccc([N+](=O)[O-])c2c(NCCCNCCCNc3ccc(C)c4[nH]c5ccccc5c(=O)c34)c3ccccc3nc12		129	85		105		1300	1300	67		162				213	inhibition in vivo at 60 mg/kg (NCI-H460 [20]): 25%
Cc1ccc([N+](=O)[O-])c2c(NCCCN3CCN(CCCNc4ccc(C)c5[nH]c6ccc(O)cc6c(=O)c45)CC3)c3ccccc3nc12		46	47					61	40			48		67	300	inhibition in vivo at 30 mg/kg (NCI-H460 [21]): 6%; T/C (W256 [22]): 300%; inhibition in vivo at 48 mg/kg (DU-145 [23]): 25%
Cc1ccc(NCCNCCNc2c3ccccc3nc3cccc([N+](=O)[O-])c23)c2c(=O)c3ccccc3[nH]c12	28.5	243		37.7				138		28.1	212	137			250	T/C (W256 [24]): 350%; inhibition in vivo at 40 mg/kg (DU-145 [25]): 61%; inhibition in vivo at 14 mg/kg (UMUC3 [26]): 46%; inhibition in vivo at 16 mg/kg (PANC-1 [27]): 75%
Cc1ccc([N+](=O)[O-])c2c(NCCCN3CCN(CCCNc4ccc([N+](=O)[O-])c5[nH]c6ccccc6c(=O)c45)CC3)c3ccccc3nc12	19.4	41	83	8.7	63	2.6			40	21.6	130		362	108		inhibition in vivo at 8 mg/kg (PC-3 [28]): 30%; inhibition in vivo at 10 mg/kg (PANC-1 [29]): 27%; inhibition in vivo at 30 mg/kg (PANC-1 [30]): 72%; T/C (W256 [31]): 550%; inhibition in vivo at 60 mg/kg (NCI-H460 [32]): 24%
